Measured values reported in US20250223281A1, “ANTIDIABETIC COMPOUNDS AND COMPOSITIONS” (REZUBIO PHARMACEUTICALS CO., LTD, priority 2022, published 2025).

Molecular target: T1, GPR40 (Homo sapiens, UniProt O14842)
T1 construct: expressed in transfected cells; host or cells: HEK293 cells stably expressing GPR40 (Hygromycin selection)
Experiment: IP1 accumulation assay in HEK293 cells stably expressing GPR40
Assay type: cell-based
How it was run: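 HEK293 cells stably expressing human GPR40 were incubated with compounds (10-point, 3-fold dilution series) for 2 h at 37 °C, then IP1 was detected by HTRF (665/615 nm ratio). Effect was normalised to DMSO blank and AMG-1638 as 100%, and EC50 was derived from dose curves.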

[1] = IP1 accumulation, HEK293 cells stably expressing GPR40, 2 hours at 37° C., % effect relative to AMG-1638, table of Biological Example 1
[2] = Tables A-1a to A-7b (structure-property relationship), obtained by methods of Biological Example 1
[3] = Table A-8 (additional examples), obtained by methods of Biological Example 1

T1 sequence (O14842 whole entry): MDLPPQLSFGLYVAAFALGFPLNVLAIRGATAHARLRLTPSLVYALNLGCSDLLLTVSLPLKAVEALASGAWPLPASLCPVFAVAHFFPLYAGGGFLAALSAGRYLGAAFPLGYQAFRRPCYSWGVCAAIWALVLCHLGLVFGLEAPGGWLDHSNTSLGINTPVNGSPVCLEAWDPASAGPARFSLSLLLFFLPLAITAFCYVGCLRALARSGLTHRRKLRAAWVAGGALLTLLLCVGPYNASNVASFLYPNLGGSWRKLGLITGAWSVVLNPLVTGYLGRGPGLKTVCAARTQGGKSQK

| EC50 [1] [nM] | EC50 [2] [nM] | EC50 [3] [nM] | SMILES |
| --- | --- | --- | --- |
| 2.6 | 2.6 | – | COc1ccc(F)c(-c2ccc(COc3cccc([C@@H](CC(=O)O)C4CC4)c3)cc2CC(C)(C)Cc2cn(CCCCCCCCCCCCCCCC(=O)NCC[N+](C)(CCC(=O)NCCN)CCC(=O)NCCN)nn2)c1 [Example 90] |
| 1.34 | 1.34 | 1.34 | COc1ccc(F)c(-c2ccc(COc3cccc([C@@H](CC(=O)O)C4CC4)c3)cc2CC(C)(C)Cn2cc(CCCCCCCCCCCCCCCC(=O)NCCN(CCC(=O)NCCN)CCC(=O)NCCN)nn2)c1 [Example 187] |
| > 10000 | – | > 10000 | C[C@H](C(=O)O)[C@H](c1ccc2c(c1)O[C@@H](C1CCN(Cc3cc(-n4cc(COCCOCCOCC(=O)NCCN(CCC(=O)NCCN)CCC(=O)NCCN)nn4)ccc3OC(F)(F)F)CC1)CC2)C1CC1 [Example 171] |
| 2.99 | 2.99 | – | COc1ccc(C(=O)N(CC(C)(C)CCCCCCn2cc(CCCCCCCCCCC(=O)NCCN(CCC(=O)NCCN)CCC(=O)NCCN)nn2)c2cccc(C)n2)c(N2CCC(COc3cc([C@@H](CC(=O)O)C4CC4)ccn3)CC2)c1 [Example 74] |
| 0.1 | 0.1 | – | COc1ccc(C(=O)N(CC(C)(C)CCn2cc(CCCCCCCCCCCCCCC(=O)NCC[N+](C)(CCC(=O)NCCN)CCC(=O)NCCN)nn2)c2cccc(C)n2)c(N2CCC(COc3cc([C@@H](CC(=O)O)C4CC4)ccn3)CC2)c1 [Example 119] |
| 2.03 | – | – | C[C@H](C(=O)O)[C@H](c1ccc2c(c1)O[C@@H](C1CCN(Cc3cc(-c4cn(CCCCCCCCCCCCCCCCCC(=O)NCC[N+](C)(C)CCCS(=O)(=O)[O-])nn4)ccc3OC(F)(F)F)CC1)CC2)C1CC1 [Example 46] |
| 0.16 | 0.16 | 0.16 | COc1ccc(C(=O)N(CC(C)(C)CCn2cc(CCCCCCCCCCCCCCCC(=O)NCC[N+](C)(CCC(=O)NCCN)CCC(=O)NCCN)nn2)c2cccc(C)n2)c(N2CCC(COc3cc([C@@H](CC(=O)O)C4CC4)ccn3)CC2)c1 [Example 202] |
| 298 | – | – | COc1ccc(F)c(-c2ccc(COc3cccc([C@@H](CC(=O)O)C4CC4)c3)cc2OC(C)(C)Cn2cc(CCCCCCCCCCCCC(=O)NCC[N+](C)(CCC(=O)NCCN)CCC(=O)NCCN)nn2)c1 [Example 30] |
| 8.97 | – | – | COc1ccc(F)c(-c2ccc(COc3cccc([C@@H](CC(=O)O)C4CC4)c3)cc2C(C)(C)Cn2cc(CCCCCCCCCCCCCCCCCC(=O)NCC[N+](C)(CCC(=O)NCCN)CCC(=O)NCCN)nn2)c1 [Example 158] |
| 0.23 | – | – | COc1ccc(C(=O)N(CC(C)(C)CCCCCCn2cc(CCCCCCCCCCCCC(=O)NCC[N+](C)(CC(=O)NCCN)CC(=O)NCCN)nn2)c2cccc(C)n2)c(N2CCC(COc3cc([C@@H](CC(=O)O)C4CC4)ccn3)CC2)c1 [Example 61] |
| 20.3 | – | – | COc1ccc(F)c(-c2ccc(COc3cccc([C@@H](CC(=O)O)C4CC4)c3)cc2C(C)(C)c2cn(CCCCCCCCCCCCCCCCCC(=O)NCC[N+](C)(CCC(=O)NCCN)CCC(=O)NCCN)nn2)c1 [Example 11] |
| 26 | 26 | – | COc1ccc(F)c(-c2ccc(COc3cccc([C@@H](CC(=O)O)C4CC4)c3)cc2CC(C)(C)Cc2cn(CCCCCCCCCCCCCCC(=O)NCCN(CCC(=O)NCCN)CCC(=O)NCCN)nn2)c1 [Example 52] |
| 0.19 | – | – | C[C@H](C(=O)O)[C@H](c1ccc2c(c1)O[C@@H](C1CCN(Cc3cc(-n4cc(CCCCCCCCCCCCCCCCCC(=O)NCCCN(C)CC(=O)NCCN)nn4)ccc3OC(F)(F)F)CC1)CC2)C1CC1 [Example 145] |

Continued, compound first:

| SMILES | EC50 [1] [nM] | EC50 [2] [nM] | EC50 [3] [nM] |
| --- | --- | --- | --- |
| C[C@H](C(=O)O)[C@H](c1ccc2c(c1)O[C@@H](C1CCN(Cc3cc(-n4cc(CCCCCCCCCCCCCCCCCC(=O)NCC[N+](C)(CCC(=O)NCCN)CCC(=O)NCCN)nn4)ccc3OC(F)(F)F)CC1)CC2)C1CC1 [Example 4] | 0.31 | 0.31 | – |
| COc1ccc(C(=O)N(CC(C)(C)CCCCCCCCCCCCCCCCCCCC(=O)NCC[N+](C)(CCC(=O)NCCN)CCC(=O)NCCN)c2cccc(C)n2)c(N2CCC(COc3cc([C@@H](CC(=O)O)C4CC4)ccn3)CC2)c1 [Example 65, (S)-3-((2-aminoethyl)amino)-N-(3-((2-aminoethyl)amino)-3-oxopropyl)-N-(2-(22-(2-(4-(((4-(2-carboxy-1-cyclopropylethyl)pyridin-2-yl)oxy)methyl)piperidin-1-yl)-4-methoxy-N-(6-methylpyridin-2-yl)benzamido)-21,21-dimethyldocosanamido)ethyl)-N-methyl-3-oxopropan-1-aminium chloride] | 0.28 | – | – |
| COc1ccc(C(=O)N(CC(C)(C)CCn2cc(CCCCCCCCCCCCCCCC(=O)NCCN(CCC(=O)NCCN)CCC(=O)NCCN)nn2)c2cccc(C)n2)c(N2CCC(COc3cc([C@@H](CC(=O)O)C4CC4)ccn3)CC2)c1 [Example 198] | 0.17 | 0.17 | 0.17 |
| COc1ccc(F)c(-c2ccc(COc3cccc([C@@H](CC(=O)O)C4CC4)c3)cc2CC(C)(C)Cc2cn(CCCCCCCCCCCC(=O)NCC[N+](C)(CCC(=O)NCCN)CCC(=O)NCCN)nn2)c1 [Example 97] | 328 | 328 | – |
| COc1ccc(C(=O)N(CC(C)(C)CCn2cc(COCCOCCOCCOCC(=O)NCC[N+](C)(CCC(=O)NCCN)CCC(=O)NCCN)nn2)c2cccc(C)n2)c(N2CCC(COc3cc(C(CC(=O)O)C4CC4)ccn3)CC2)c1 (stereo not drawn) [Example 163] | > 5000 | – | > 5000 |
| COc1ccc(F)c(-c2ccc(COc3cccc([C@@H](CC(=O)O)C4CC4)c3)cc2CC(C)(C)Cn2cc(CCCCCCC(=O)NCC[N+](C)(CCC(=O)NCCN)CCC(=O)NCCN)nn2)c1 [Example 95] | > 10000 | > 10000 | – |
| COc1ccc(F)c(-c2ccc(COc3cccc([C@@H](CC(=O)O)C4CC4)c3)cc2CC(C)(C)Cn2cc(COCCOCCOCCOCC(=O)NCCN(CCC(=O)NCCN)CCC(=O)NCCN)nn2)c1 [Example 166] | > 10000 | – | > 10000 |
| C[C@H](C(=O)O)[C@H](c1ccc2c(c1)O[C@@H](C1CCN(Cc3cc(-n4cc(CCCCCCCCC(=O)NCCN(CCC(=O)NCCN)CCC(=O)NCCN)nn4)ccc3OC(F)(F)F)CC1)CC2)C1CC1 [Example 80] | > 5000 | > 5000 | – |
| COc1ccc(F)c(-n2nnc(COc3cccc([C@@H](CC(=O)O)C4CC4)c3)c2CC(C)(C)Cn2cc(COCCOCCOCCOCCOCC(=O)NCC[N+](C)(CCC(=O)NCCN)CCC(=O)NCCN)nn2)c1 [Example 182] | > 10000 | – | – |
| COc1ccc(F)c(-c2ccc(COc3cccc([C@@H](CC(=O)O)C4CC4)c3)cc2OC(C)(C)Cn2cc(CCCCCCCCCCC(=O)NCC[N+](C)(CCC(=O)NCCN)CCC(=O)NCCN)nn2)c1 [Example 141] | 1650 | – | – |
| COc1ccc(C(=O)N(CC(C)(C)CCn2cc(CCCCCCCCCCCCCC(=O)NCCCN(CC(=O)O)CC(=O)O)nn2)c2cccc(C)n2)c(N2CCC(COc3cc([C@@H](CC(=O)O)C4CC4)ccn3)CC2)c1 [Example 128] | 1.33 | 1.33 | – |
| C[C@H](C(=O)O)[C@H](c1ccc2c(c1)O[C@@H](C1CCN(Cc3cc(-n4cc(CCCCCCCCCCCCC(=O)NCCN(CCC(=O)NCCN)CCC(=O)NCCN)nn4)ccc3OC(F)(F)F)CC1)CC2)C1CC1 [Example 1, (2S,3R)-3-((R)-2-(1-(5-(4-(13-((2-(bis(3-((2-aminoethyl)amino)-3-oxopropyl)amino)ethyl)amino)-13-oxotridecyl)-1H-1,2,3-triazol-1-yl)-2-(trifluoromethoxy)benzyl)piperidin-4-yl)chroman-7-yl)-3-cyclopropyl-2-methylpropanoic acid] | 5.46 | 5.46 | 5.46 |
